Converted amounts (≈) assume the structure as drawn.
Tests used:
[1] = Stability in aqueous media (FaSSIF, SGF, PBS); type: physicochemical; conditions: for FaSSIF (pH 6.5) % remaining 1 h / FaSSIF (pH 6.5) % remaining 6 h / FaSSIF (pH 6.5) % remaining 24 h: FaSSIF pH 6.5, 37° C.; for PBS (pH 7.4) % remaining 1 h / PBS (pH 7.4) % remaining 6 h / PBS (pH 7.4) % remaining 24 h: PBS pH 7.4, 37° C.; for SGF (pH 1.2) % remaining 1 h / SGF (pH 1.2) % remaining 6 h / SGF (pH 1.2) % remaining 24 h: SGF pH 1.2, 37° C.
Experimental: 10 μL of a 10 mM stock solution of the Examples were dissolved in 490 μL DMSO to afford […] working solution SGF (pH 1.2):
Dissolve 0.04 g NaCl and 0.064 g pepsin in 0.14 mL HCl and add sufficient water to 20 mL volume. The pH of the test solution was 1.20±0.05.
0.056% (w/v) lecithin, 0.161% (w/v) sodium taurocholate, 0.39% (w/v) monobasic potassium phosphate, 0.77% (w/v) potassium chloride, deionized H2O. The pH of the test solution was 6.5±0.05.
30 mL of 10×PBS (pH7.4) was added into a 50 mL flask and diluted with water. The solution was mixed well and adjusted to pH 7.4 with 1 N HCl.
2 μL of the 200 μL working solution of the Examples was added into 96-deep-well plates for TO, T60, T120, T360 and T1440 timepoints. Duplicates were prepared.
Stability studies were commenced by the addition of 198 μL of the required media (e.g. Simulated Gastric Fluid pH 1.2 [SGF], Simulated Fasted State Intestinal Fluid pH 6.5 [FaSSIF]) and Phosphate Buffered Saline pH 7.4 [PBS]) to each well except TO. The samples were incubated at 37° C. at 600 rpm for the appointed time. The samples at the corresponding timepoint were removed and immediately mixed with 400 μL of cold acetonitrile containing 200 ng/mL tolbutamide and labetalol (internal standard). The samples were centrifuged at 4000 rpm at 4° C. for 20 minutes. 60 μL of the supernatant was removed and mixed with 180 μL purified water and thoroughly mixed and analysed by LCMS (Shimadzu LC 30-AD, ACQUITY UPLC BEH Phenyl 1.7 um 2.1*50 mm Part No. 186002884, with mobile phase A: 0.1% formic acid in water, mobile phase B: 0.1% formic acid in acetonitrile). Formation of parent was also monitored as a metabolite.
Samples were analysed by Mass Spectrometry QTRAP 6500+.

[2] = type: in vitro ADME; conditions: rat plasma, 37° C.
Experimental: 5 μL of a 10 mM stock solution of the Examples were dissolved in 495 μL DMSO to afford 500 μL working solution Assay procedure:
98 μL plasma was added to each well of a 96-well reaction plate, using one plate per timepoint (Blank, TO, T10, T30, T60, and T120). 2 μL of working solution was added to each well of the reaction plates except Blank. Each plate was incubated at 37° C. for the indicated timepoint (0, 10, 30, 60, 120 minutes). At the end of incubation, 400 μL of stop solution (200 ng/mL tolbutamide and 200 ng/mL labetalol in 0.1% FA in ACN) was added to precipitate protein. The plates were then sealed and shaken for 20 minutes before centrifugation at 4000 rpm for 20 minutes. […] Formation of parent was also monitored as a metabolite.

[3] = Solubility in simulated fluids (kinetic solubility, 24 hours); type: physicochemical; conditions: thermodynamic from solid, 24 hour timepoint, room temperature
Experimental: A known quantity of the Examples and control compounds were weighed into a suitable vessel (whatman miniuniprep vials) and a known volume of the required media was added (e.g. Simulated Gastric Fluid pH 1.2 [SGF], Simulated Fasted State Intestinal Fluid pH 6.5 [FaSSIF] or Phosphate Buffered Saline pH 7.4 [PBS]). The samples were subjected to vortex mixing for 2 minutes followed by agitation on a shaker for 24 hours at room temperature at 800 rpm.

[4] = simulated gastric fluid, SGF (pH 1.2)

| Compound | FaSSIF (pH 6.5) % remaining 1 h [1] | FaSSIF (pH 6.5) % remaining 6 h [1] | FaSSIF (pH 6.5) % remaining 24 h [1] | PBS (pH 7.4) % remaining 1 h [1] | PBS (pH 7.4) % remaining 6 h [1] | PBS (pH 7.4) % remaining 24 h [1] | SGF (pH 1.2) % remaining 1 h [1] | SGF (pH 1.2) % remaining 6 h [1] | SGF (pH 1.2) % remaining 24 h [1] | % Example remaining 0 min [2] | Example concentration (nM) 0 min [2] | % Example remaining 10 min [2] | Example concentration (nM) 10 min [2] | solubility kinetic at 24 h [3, 4] | solubility kinetic at 24 h ([3]; FaSSIF (pH 6.5)) |
| --- | --- | --- | --- | --- | --- | --- | --- | --- | --- | --- | --- | --- | --- | --- | --- |
| CN(C)CCOC(=O)c1ccc2c(c1)nc(OCCOCCCCNCc1cc(F)c(OC(F)(F)F)c(F)c1)c1ccncc12 [Example 3, 2-(dimethylamino)ethyl 5-(2-(4-((3,5-difluoro-4-(trifluoromethoxy)benzyl)amino)butoxy)ethoxy)benzo[c][2,6]naphthyridine-8-carboxylate] | 102.2% | 101.8% | 98.6% | 71.8% | 17.8% | 1.3% | 90.6% | 76.1% | 33.5% | 100.0% | 1830.9 nM | 0.1% | 2.7 nM |  |  |
| CC(C)OC(=O)c1ccc2c(c1)nc(OCCOCCCCNCc1cc(F)c(OC(F)(F)F)c(F)c1)c1ccncc12 [Example 2, isopropyl 5-(2-(4-((3,5-difluoro-4-(trifluoromethoxy)benzyl)amino)butoxy)ethoxy)benzo[c][2,6]naphthyridine-8-carboxylate] | 95.4% | 80.5% | 87.2% | 74.5% | 31.0% | 11.5% | 97.1% | 57.9% | 19.6% |  |  |  |  |  |  |
| Cc1oc(=O)oc1COC(=O)c1ccc2c(c1)nc(OCCOCCCCNCc1cc(F)c(OC(F)(F)F)c(F)c1)c1ccncc12 [Example 7, (5-methyl-2-oxo-1,3-dioxol-4-yl)methyl 5-(2-(4-((3,5-difluoro-4-(trifluoromethoxy)benzyl)amino)butoxy)ethoxy)benzo[c][2,6]naphthyridine-8-carboxylate] | 101.0% | 93.5% | 89.1% | 78.9% | 16.7% | 0.7% | 98.9% | 67.2% | 26.9% | 100.0% | 1887.9 nM | 0.1% | 1.2 nM | 18.5 µg/mL (≈ 27.3 µM) | 76.1 µg/mL (≈ 112 µM) |
| COC(=O)OCOC(=O)c1ccc2c(c1)nc(OCCOCCCCNCc1cc(F)c(OC(F)(F)F)c(F)c1)c1ccncc12 [Example 11, ((methoxycarbonyl)oxy)methyl 5-(2-(4-((3,5-difluoro-4-(trifluoromethoxy)benzyl)amino)butoxy)ethoxy)benzo[c][2,6]naphthyridine-8-carboxylate] | 96.4% | 97.5% | 105.9% | 81.2% | 29.3% | 19.0% | 100.2% | 66.3% | 21.5% |  |  |  |  |  |  |
| O=C(OCOC(=O)c1ccc2c(c1)nc(OCCOCCCCNCc1cc(F)c(OC(F)(F)F)c(F)c1)c1ccncc12)OC1CCOCC1 [Example 16, ((((tetrahydro-2H-pyran-4-yl)oxy)carbonyl)oxy)methyl 5-(2-(4-((3,5-difluoro-4-(trifluoromethoxy)benzyl)amino)butoxy)ethoxy)benzo[c][2,6]naphthyridine-8-carboxylate] | 95.5% | 104.4% | 95.7% | 93.8% | 37.9% | 7.1% | 95.4% | 63.0% | 19.4% | 100.0% | 1845.9 nM | 0.1% | 2.7 nM | 39.4 µg/mL (≈ 54.4 µM) | 99.4 µg/mL (≈ 137 µM) |
| CC(C)(C)OC(=O)OCOC(=O)c1ccc2c(c1)nc(OCCOCCCCNCc1cc(F)c(OC(F)(F)F)c(F)c1)c1ccncc12 [Example 15, ((tert-butoxycarbonyl)oxy)methyl 5-(2-(4-((3,5-difluoro-4-(trifluoromethoxy)benzyl)amino)butoxy)ethoxy)benzo[c][2,6]naphthyridine-8-carboxylate] | 99.0% | 97.9% | 98.6% | 100.3% | 49.7% | 7.9% | 47.5% | 3.8% | 1.8% |  |  |  |  |  |  |
| CC(C)C(=O)OCOC(=O)c1ccc2c(c1)nc(OCCOCCCCNCc1cc(F)c(OC(F)(F)F)c(F)c1)c1ccncc12 [Example 5, (isobutyryloxy)methyl 5-(2-(4-((3,5-difluoro-4-(trifluoromethoxy)benzyl)amino)butoxy)ethoxy)benzo[c][2,6]naphthyridine-8-carboxylate] | 100.2% | 97.5% | 98.8% | 76.2% | 7.9% | 2.4% | 87.0% | 55.5% | 13.0% |  |  |  |  |  |  |
| COC(=O)c1ccc2c(c1)nc(OCCOCCCCNCc1cc(F)c(OC(F)(F)F)c(F)c1)c1ccncc12 [Example 4, methyl 5-(2-(4-((3,5-difluoro-4-(trifluoromethoxy)benzyl)amino)butoxy)ethoxy)benzo[c][2,6]naphthyridine-8-carboxylate] | 90.0% | 86.6% | 93.3% | 70.3% | 22.4% | 7.9% | 93.7% | 63.7% | 16.5% |  |  |  |  |  |  |
| CC(C)(C)C(=O)OCOC(=O)c1ccc2c(c1)nc(OCCOCCCCNCc1cc(F)c(OC(F)(F)F)c(F)c1)c1ccncc12 [Example 6, (pivaloyloxy)methyl 5-(2-(4-((3,5-difluoro-4-(trifluoromethoxy)benzyl)amino)butoxy)ethoxy)benzo[c][2,6]naphthyridine-8-carboxylate] | 112.8% | 97.0% | 109.4% | 85.2% | 27.7% | 5.1% | 88.8% | 59.8% | 20.0% | 100.0% | 1779.1 nM | 0.3% | 5.0 nM |  |  |

From patent US20260085069A1, “PRODRUGS” (Cambridge Enterprise Limited, priority 2022, published 2026)
